These compounds were tested against DOT1L(1-416) (Homo sapiens, UniProt Q8TEK3) (assay: Determination of IC50: DOT1L(1-416) methyltransferase assay, 3H-SAM, oligonucleosome substrate, Flashplate). Conditions: class symbols; read-out: DOT1L IC50.
Type: biochemical
Summary of the method: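 Compounds in 10-point 3-fold DMSO dilutions were tested in reactions started with substrate mix of 200 nM [3H]-SAM, 600 nM unlabeled SAM and 20 nM oligonucleosome. Reactions ran 120 min at room temperature and were quenched with 100 μM SAM. Labeled substrate was captured on streptavidin Flashplates and counted by scintillation to give IC50.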

DOT1L(1-416), sequence (Q8TEK3 1-416): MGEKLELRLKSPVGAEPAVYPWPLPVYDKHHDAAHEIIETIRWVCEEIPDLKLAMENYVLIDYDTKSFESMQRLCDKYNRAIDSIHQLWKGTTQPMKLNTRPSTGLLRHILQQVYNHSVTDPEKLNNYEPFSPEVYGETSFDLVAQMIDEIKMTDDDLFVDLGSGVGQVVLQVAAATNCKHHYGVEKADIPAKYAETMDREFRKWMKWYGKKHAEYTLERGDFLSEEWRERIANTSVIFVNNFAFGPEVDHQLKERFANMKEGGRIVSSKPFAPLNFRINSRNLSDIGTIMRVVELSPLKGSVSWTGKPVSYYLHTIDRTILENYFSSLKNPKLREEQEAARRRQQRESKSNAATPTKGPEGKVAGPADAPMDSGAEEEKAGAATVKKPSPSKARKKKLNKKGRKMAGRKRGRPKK

SMILES | IC50 [nM]
CN(C[C@H]1O[C@@H](n2cnc3c(N)ncnc32)[C@H](O)[C@@H]1O)[C@H]1C[C@H](CCc2nc3cc(C(C)(C)C)ccc3[nH]2)C1 [Compound 72, (2R,3R,4S,5R)-2-(6-amino-9H-purin-9-yl)-5-((((1s,3R)-3-(2-(5-(tert-butyl)-1H-benzo[d]imidazol-2-yl)ethyl)cyclobutyl)(methyl)amino)methyl)tetrahydrofuran-3,4-diol] | < 100
CCN(C[C@H]1O[C@@H](n2cnc3c(N)ncnc32)[C@H](O)[C@@H]1O)[C@H]1C[C@@H](CCc2nc3cc(C(C)(C)C)ccc3[nH]2)C1 [Compound 73, (2R,3R,4S,5R)-2-(6-amino-9H-purin-9-yl)-5-((((1r,35)-3-(2-(5-(tert-butyl)-1H-benzo[d]imidazol-2-yl)ethyl)cyclobutyl)(ethyl)amino)methyl)tetrahydrofuran-3,4-diol] | < 100
CCN(C[C@H]1O[C@@H](n2cnc3c(N)ncnc32)[C@H](O)[C@@H]1O)[C@H]1C[C@H](CCc2nc3cc(C(C)(C)C)ccc3[nH]2)C1 [Compound 74, (2R,3R,4S,5R)-2-(6-amino-9H-purin-9-yl)-5-((((1s,3R)-3-(2-(5-(tert-butyl)-1H-benzo[d]imidazol-2-yl)ethyl)cyclobutyl)(ethyl)amino)methyl)tetrahydrofuran-3,4-diol] | < 100
CC(C)N(C[C@H]1O[C@@H](n2ccc3c(N)ncnc32)[C@H](O)[C@@H]1O)[C@H]1C[C@H](CCc2nc3cc(C(C)(C)C)ccc3[nH]2)C1 [Compound 75, (2R,3R,4S,5R)-2-(4-amino-7H-pyrrolo[2,3-d]pyrimidin-7-yl)-5-((((1s,3R)-3-(2-(5-(tert-butyl)-1H-benzo[d]imidazol-2-yl)ethyl)cyclobutyl)(isopropyl)amino)methyl)tetrahydrofuran-3,4-diol] | < 100
CC(C)N(C[C@H]1O[C@@H](n2ccc3c(N)ncnc32)[C@H](O)[C@@H]1O)[C@H]1C[C@H](CCc2nc3cc(OC(F)(F)F)ccc3[nH]2)C1 [Compound 76, (2R,3R,4S,5R)-2-(4-amino-7H-pyrrolo[2,3-d]pyrimidin-7-yl)-5-((isopropyl((1s,3R)-3-(2-(5-(trifluoromethoxy)-1H-benzo[d]imidazol-2-yl)ethyl)cyclobutyl)amino)methyl)tetrahydrofuran-3,4-diol] | < 100
CC(C)(C)c1ccc2[nH]c(CC[C@H]3C[C@H](N(C[C@H]4O[C@@H](n5ccc6c(N)ncnc65)[C@H](O)[C@@H]4O)CC(F)(F)F)C3)nc2c1 [Compound 77, (2R,3R,4S,5R)-2-(4-amino-7H-pyrrolo[2,3-d]pyrimidin-7-yl)-5-((((1s,3R)-3-(2-(5-(tert-butyl)-1H-benzo[d]imidazol-2-yl)ethyl)cyclobutyl)(2,2,2-trifluoroethyl)amino)methyl)tetrahydrofuran-3,4-diol] | 100 to 1000
CC(C)(C)c1ccc2[nH]c(CC[C@H]3C[C@@H](N(C[C@H]4O[C@@H](n5ccc6c(N)ncnc65)[C@H](O)[C@@H]4O)CC(F)(F)F)C3)nc2c1 [Compound 78, (2R,3R,4S,5R)-2-(4-amino-7H-pyrrolo[2,3-d]pyrimidin-7-yl)-5-((((1r,3S)-3-(2-(5-(tert-butyl)-1H-benzo[d]imidazol-2-yl)ethyl)cyclobutyl)(2,2,2-trifluoroethyl)amino)methyl)tetrahydrofuran-3,4-diol] | 1000 to 10000
CCN(C[C@H]1O[C@@H](n2cnc3c(N)ncnc32)[C@H](O)[C@@H]1O)C1CC(CCc2nc3cc(C(C)(C)C)ccc3[nH]2)C1 (stereo partly drawn) [Compound 79, (2R,3R,4S,5R)-2-(6-amino-9H-purin-9-yl)-5-(((3-(2-(5-(tert-butyl)-1H-benzo[d]imidazol-2-yl)ethyl)cyclobutyl) (ethyl)amino)methyl) tetrahydrofuran-3,4-diol] | < 100
CC(C)(C)c1ccc2[nH]c(CC[C@H]3C[C@H](N(C[C@H]4O[C@@H](n5cnc6c(N)ncnc65)[C@H](O)[C@@H]4O)CC(F)(F)F)C3)nc2c1 [Compound 80, (2R,3R,4S,5R)-2-(6-amino-9H-purin-9-yl)-5-((((1s,3R)-3-(2-(5-(tert-butyl)-1H-benzo[d]imidazol-2-yl)ethyl)cyclobutyl) (2,2,2-trifluoroethyl)amino)methyl)tetrahydrofuran-3,4-diol] | 100 to 1000
CN(C[C@@H]1C[C@@H](O)[C@H](n2ccc3c(N)ncnc32)C1)[C@H]1C[C@@H](CCc2nc3cc(Cl)c(C(F)(F)F)cc3[nH]2)C1 [Compound 81, (1R,2R,4S)-2-(4-amino-7H-pyrrolo[2,3-d]pyrimidin-7-yl)-4-((((1r,3R)-3-(2-(5-chloro-6-(trifluoromethyl)-1H-benzo[d]imidazol-2-yl)ethyl)cyclobutyl) (methyl)amino)methyl) cyclopentanol] | 100 to 1000
CC(C)(C)c1ccc2[nH]c(CCC3CC(N(C[C@H]4O[C@@H](n5cnc6c(N)ncnc65)[C@H](O)[C@@H]4O)CC(F)(F)F)C3)nc2c1 (stereo partly drawn) [Compound 82, (2R,3R,45,5R)-2-(6-amino-9H-purin-9-yl)-5-(((3-(2-(5-(tert-butyl)-1H-benzo[d]imidazol-2-yl)ethyl)cyclobutyl) (2,2,2-trifluoroethyl)amino)methyl)tetrahydrofuran-3,4-diol] | 100 to 1000
CC(C)N(C[C@@H]1C[C@@H](O)[C@H](n2ccc3c(N)ncnc32)C1)C1CC(CCc2nc3cc(Cl)c(C(F)(F)F)cc3[nH]2)C1 (stereo partly drawn) [Compound 84, (1R,2R,4S)-2-(4-amino-7H-pyrrolo[2,3-d]pyrimidin-7-yl)-4-(((3-(2-(5-chloro-6-(trifluoromethyl)-1H-benzo[d]imidazol-2-yl)ethyl)cyclobutyl) (isopropyl)amino)methyl)cyclopentanol] | 1000 to 10000
CN(C[C@@H]1C[C@@H](O)[C@H](n2ccc3c(N)ncnc32)C1)[C@H]1C[C@H](CCc2nc3cc(Cl)c(C(F)(F)F)cc3[nH]2)C1 [Compound 85, (1R,2R,4S)-2-(4-amino-7H-pyrrolo[2,3-d]pyrimidin-7-yl)-4-((((1s,3S)-3-(2-(5-chloro-6-(trifluoromethyl)-1H-benzo[d]imidazol-2-yl)ethyl)cyclobutyl) (methyl)amino)methyl) cyclopentanol] | 10000 to 50000
CN(C[C@H]1O[C@@H](n2ccc3c(N)ncnc32)[C@H](O)[C@@H]1O)[C@H]1C[C@@H](CCc2nc3cc(C(C)(C)C)ccc3[nH]2)C1 [Compound 86, (2R,3R,4S,5R)-2-(4-amino-7H-pyrrolo[2,3-d]pyrimidin-7-yl)-5-((((1r,3S)-3-(2-(5-(tert-butyl)-1H-benzo[d]imidazol-2-yl)ethyl)cyclobutyl) (methyl)amino)methyl) tetrahydrofuran-3,4-diol] | < 100
CC(C)N(C[C@H]1O[C@@H](n2ccc3c(N)ncnc32)[C@H](O)[C@@H]1O)[C@H]1C[C@@H](CCc2nc3cc(OC(F)(F)F)ccc3[nH]2)C1 [Compound 87, (2R,3R,4S,5R)-2-(4-amino-7H-pyrrolo[2,3-d]pyrimidin-7-yl)-5-((isopropyl((1r,3S)-3-(2-(5-(trifluoromethoxy)-1H-benzo[d]imidazol-2-yl)ethyl)cyclobutyl)amino)methyl)tetrahydrofuran-3,4-diol] | < 100
CCN(C[C@H]1O[C@@H](n2ccc3c(N)ncnc32)[C@H](O)[C@@H]1O)[C@H]1C[C@H](CCc2nc3cc(C(C)(C)C)ccc3[nH]2)C1 [Compound 88, (2R,3R,4S,5R)-2-(4-amino-7H-pyrrolo[2,3-d]pyrimidin-7-yl)-5-((((1s,3R)-3-(2-(5-(tert-butyl)-1H-benzo[d]imidazol-2-yl)ethyl)cyclobutyl) (ethyl)amino)methyl) tetrahydrofuran-3,4-diol] | < 100
CCN(C[C@H]1O[C@@H](n2ccc3c(N)ncnc32)[C@H](O)[C@@H]1O)[C@H]1C[C@@H](CCc2nc3cc(C(C)(C)C)ccc3[nH]2)C1 [Compound 89, (2R,3R,4S,5R)-2-(4-amino-7H-pyrrolo[2,3-d]pyrimidin-7-yl)-5-((((1r,3S)-3-(2-(5-(tert-butyl)-1H-benzo[d]imidazol-2-yl)ethyl)cyclobutyl) (ethyl)amino)methyl) tetrahydrofuran-3,4-diol] | < 100
CC(C)N(C[C@H]1O[C@@H](n2ccc3c(N)ncnc32)[C@H](O)[C@@H]1O)[C@H]1C[C@@H](CCc2nc3cc(C(C)(C)C)ccc3[nH]2)C1 [Compound 90, (2R,3R,4S,5R)-2-(4-amino-7H-pyrrolo[2,3-d]pyrimidin-7-yl)-5-((((1r,3S)-3-(2-(5-(tert-butyl)-1H-benzo[d]imidazol-2-yl)ethyl)cyclobutyl)(isopropyl)amino)methyl)tetrahydrofuran-3,4-diol] | < 100
CN(C[C@H]1O[C@@H](n2ccc3c(N)ncnc32)[C@H](O)[C@@H]1O)[C@H]1C[C@H](CCc2nc3cc(C(C)(C)C)ccc3[nH]2)C1 [Compound 92, (2R,3R,4S,5R)-2-(4-amino-7H-pyrrolo[2,3-d]pyrimidin-7-yl)-5-((((1s,3R)-3-(2-(5-(tert-butyl)-1H-benzo[d]imidazol-2-yl)ethyl)cyclobutyl) (methyl)amino)methyl) tetrahydrofuran-3,4-diol] | < 100
CN(C[C@H]1O[C@@H](n2ccc3c(N)ncnc32)[C@H](O)[C@@H]1O)[C@H]1C[C@@H](CCc2nc3cc(OC(F)(F)F)ccc3[nH]2)C1 [Compound 94, (2R,3R,4S,5R)-2-(4-amino-7H-pyrrolo[2,3-d]pyrimidin-7-yl)-5-((methyl((1r,3S)-3-(2-(5-(trifluoromethoxy)-1H-benzo[d]imidazol-2-yl)ethyl)cyclobutyl)amino)methyl) tetrahydrofuran-3,4-diol] | < 100
CN(C[C@H]1O[C@@H](n2ccc3c(N)ncnc32)[C@H](O)[C@@H]1O)[C@H]1C[C@H](CCc2nc3cc(OC(F)(F)F)ccc3[nH]2)C1 [Compound 95, (2R,3R,4S,5R)-2-(4-amino-7H-pyrrolo[2,3-d]pyrimidin-7-yl)-5-((methyl((1s,3R)-3-(2-(5-(trifluoromethoxy)-1H-benzo[d]imidazol-2-yl)ethyl)eyclobutyl)amino)methyl) tetrahydrofuran-3,4-diol] | < 100

Same assay, conditions: read-out: DOT1L IC50

SMILES | IC50 [nM]
CC(C)N(C[C@H]1O[C@@H](n2ccc3c(N)ncnc32)[C@H](O)[C@@H]1O)[C@H]1C[C@H](CCc2nc3cc(C(C)(C)C)ccc3[nH]2)C1 [Compound 75, (2R,3R,4S,5R)-2-(4-amino-7H-pyrrolo[2,3-d]pyrimidin-7-yl)-5-((((1s,3R)-3-(2-(5-(tert-butyl)-1H-benzo[d]imidazol-2-yl)ethyl)cyclobutyl)(isopropyl)amino)methyl)tetrahydrofuran-3,4-diol] | 0.59
CN(C[C@H]1O[C@@H](n2ccc3c(N)ncnc32)[C@H](O)[C@@H]1O)[C@H]1C[C@@H](CCc2nc3cc(C(C)(C)C)ccc3[nH]2)C1 [Compound 86, (2R,3R,4S,5R)-2-(4-amino-7H-pyrrolo[2,3-d]pyrimidin-7-yl)-5-((((1r,3S)-3-(2-(5-(tert-butyl)-1H-benzo[d]imidazol-2-yl)ethyl)cyclobutyl) (methyl)amino)methyl) tetrahydrofuran-3,4-diol] | 0.62
CC(C)N(C[C@H]1O[C@@H](n2ccc3c(N)ncnc32)[C@H](O)[C@@H]1O)[C@H]1C[C@@H](CCc2nc3cc(OC(F)(F)F)ccc3[nH]2)C1 [Compound 87, (2R,3R,4S,5R)-2-(4-amino-7H-pyrrolo[2,3-d]pyrimidin-7-yl)-5-((isopropyl((1r,3S)-3-(2-(5-(trifluoromethoxy)-1H-benzo[d]imidazol-2-yl)ethyl)cyclobutyl)amino)methyl)tetrahydrofuran-3,4-diol] | 0.8
